Assay results: US20110130371A1, “C-ring-substituted pregn-4-ene-21,17-carbolactones, and pharmaceutical preparations comprising the same” (BAYER SCHERING PHARMA AKTIENGESSELSCHAFT, priority 2008, published 2011)

Tests used:
IDI1 mRNA = experiment: Antiandrogenic effect in orchidectomized rats, gene expression in prostate tissue (TaqMan PCR); conditions: for antiandrogenic effect (in words): IDI1 gene expression, orchidectomized rats; for Antiandrogenic effect (% inhibition): inhibition of TP-induced IDI1 mRNA induction, prostate, 24 hours; for fold induction at 10 mg/kg: Rattus norvegicus, 24 h, read-out: x-fold induction factor of IDI1 mRNA after TP administration
Protocol: As a modification of the Hershberger assay described above, in addition animals were sacrificed 24 hours after the first treatment (1 mg/kg TP, 10 mg/kg test substance), and prostate tissue was shock-frozen immediately after the autopsy and then employed for mRNA isolation. A quantitative PCR method (TagMan) was used to investigate the induction (x-fold induction factor) of androgen-stimulated genes, inter alis of steroid biosynthesis (e.g. IDI1, NM 004508.2) as a measure of the androgenic effect of TP and the inhibition thereof by the compounds of the invention.

orchidectomized rats = experiment: Antiandrogenic effect in orchidectomized rats (Hershberger); assay type: in vivo, rat; conditions: for Antiandrogenic effect (% inhibition): 1 mg/kg/day TP s.c. plus 10 mg/kg/day test substance for seven days, prostate weight; for antiandrogenic effect (in words): Hershberger
Protocol: This entails testing the suitability of the compounds for inhibiting the androgen-dependent growth of prostate, seminal vesicle and levator ani muscle in young, male, castrated rats receiving androgen replacement.
For this purpose, young rats are initially castrated. Eight days after the orchidectomy, the animals receive 1 mg/kg/day testosterone propionate (TP) s.c. alone or in combination with the test substances (10 mg/kg/day) for seven days.
On day 15 after the orchidectomy, the animals are sacrificed, and prostate, seminal vesicle and levator ani muscle are dissected out, and the relative wet weight is determined. The inhibited androgen-induced growth serves as a measure of the antiandrogenic effect of the test substance.

ovariectomized rats [1] = experiment: Progestational effect in ovariectomized rats (pregnancy maintenance test); assay type: in vivo, rat; conditions: ovariectomized pregnant rats, 5 μg/kg/d oestrone, treatment from day 8 p.c. for 6 days
Protocol: This entails investigating the ability of the compounds to compensate for the lack of progesterone in ovariectomized animals which no longer have their own progesterone synthesis and to maintain pregnancy (“pregnancy maintenance”).
Female animals weighing 200-230 g were mated. The animals were ovariectomized on day 8 post coitum (p.c.) and treated with 5 μg/kg/d oestrone. The compounds to be tested were given in various concentrations (3, 10, 30 mg/kg/d). Treatment was started on day 8 p.c. and continued for 6 days.
One day after the last treatment, the animals were autopsied. The degree of pregnancy maintenance was calculated by dividing the number of live fetuses by the number of detectable implantation sites. The presence of a beating heart was decisive for assessing a fetus as alive. No identifiable implantation sites (ovariectomized controls) was defined as 0% pregnancy maintenance.
The ED50 (concentration at which the half-maximum effect occurs) was determined as a measure of the progestational potency.

ovariectomized rats [2] = experiment: Modified pregnancy maintenance experiment with pharmacokinetic/pharmacodynamic model (AUC versus pregnancy maintenance); assay type: in vivo; conditions: rat, calculated from physiologically based PK model
Excerpt: In order to describe the difference in their progestational potency more precisely, in a modified pregnancy maintenance experiment blood samples were additionally taken at various times to determine pharmacokinetic parameters. The rats were pretreated in this case as described in the preceding experiment. A physiologically based pharmacokinetic model was developed using the programmes PK-SIM, version 4.0.1 (Bayer Technology Services, Leverkusen, Germany), GastroPlus version 5.2 (Simulations Plus, Inc., Lancaster, Calif., USA) and WinNonlin® Professional (version 5.2, Pharsight Corp., Mountain View, Calif., USA).
The relation was found between the AUC (area under the curve of the time-concentration profile) reached during the experiment and the measured pharmacological effect, i.e. the pregnancy maintenance achieved. The model thus permitted estimation of AUC50 values.
Based on the relation between systemic exposure and effect, the AUC in blood necessary to achieve 80% pregnancy maintenance in the rat model was calculated (Table 2).

adrenalectomized rats = experiment: Antimineralocorticoid effect in adrenalectomized rats (diuresis experiment); assay type: in vivo, rat; conditions: for ED50, antimineralocorticoid effect in the diuresis experiment: adrenalectomized male rats, s.c., aldosterone 1 μg/kg/h, AUC of urinary Na/K ratio
Protocol: The antimineralocorticoid effect of the compounds was determined as described by Losert at al. (Losert, W., Casals-Stenzel, J., and Buse, M. (1985). Progestogens with antimineralocorticoid activity. Arzneimittelforschung 35, 459-471).
Male animals weighing 180-200 g were adrenalectomized 5 days before the experiment and received replacement with glucocorticoids. A diuresis experiment was carried out on day 5 after the adrenalectomy. A continuous infusion of isotonic NaCl solution plus 5% glucose was administered i.v. to the animals. Simultaneous administration of 1 μg/kg/h d-aldosterone achieved a constant mineralocorticoid effect, identifiable from sodium retention and kaliuresis. The test compounds were administered s.c. in various dosages (3, 10 and 30 mg/kg), and the abolition of the aldosterone-induced sodium retention indicates an antimineralocorticoid effect.
The animals were kept in metabolism cages and urine fractions were collected each hour. The sodium and potassium ion concentration in the urine was determined by a flame-photometry method, and the Na/K ratio was calculated therefrom. The Na/K ratios were plotted against time and the area under the curve [AUC] was determined. The ED50 (concentration at which the half-maximum effect occurs) was determined as a measure of the antimineralocorticoid potency.

[3] = target: T1, human androgen receptor (hAR) (Homo sapiens, UniProt P10275); experiment: Antiandrogen transactivation assay (PC3 cells, hAR, MMTV-luciferase reporter); assay type: cell-based; conditions: for IC50: PC3 cells stably transfected with hAR and MMTV-luciferase, 16 hours incubation, read-out: IC50, antiandrogenic effect in the transactivation assay; for Efficacy: per cent of the maximum effect of reference antiandrogen hydroxyflutamide
T1 construct: expressed in transfected cells; host or cells: PC3 cells, stably transfected with hAR and an MMTV-luciferase reporter
T1 sequence (P10275 1-920): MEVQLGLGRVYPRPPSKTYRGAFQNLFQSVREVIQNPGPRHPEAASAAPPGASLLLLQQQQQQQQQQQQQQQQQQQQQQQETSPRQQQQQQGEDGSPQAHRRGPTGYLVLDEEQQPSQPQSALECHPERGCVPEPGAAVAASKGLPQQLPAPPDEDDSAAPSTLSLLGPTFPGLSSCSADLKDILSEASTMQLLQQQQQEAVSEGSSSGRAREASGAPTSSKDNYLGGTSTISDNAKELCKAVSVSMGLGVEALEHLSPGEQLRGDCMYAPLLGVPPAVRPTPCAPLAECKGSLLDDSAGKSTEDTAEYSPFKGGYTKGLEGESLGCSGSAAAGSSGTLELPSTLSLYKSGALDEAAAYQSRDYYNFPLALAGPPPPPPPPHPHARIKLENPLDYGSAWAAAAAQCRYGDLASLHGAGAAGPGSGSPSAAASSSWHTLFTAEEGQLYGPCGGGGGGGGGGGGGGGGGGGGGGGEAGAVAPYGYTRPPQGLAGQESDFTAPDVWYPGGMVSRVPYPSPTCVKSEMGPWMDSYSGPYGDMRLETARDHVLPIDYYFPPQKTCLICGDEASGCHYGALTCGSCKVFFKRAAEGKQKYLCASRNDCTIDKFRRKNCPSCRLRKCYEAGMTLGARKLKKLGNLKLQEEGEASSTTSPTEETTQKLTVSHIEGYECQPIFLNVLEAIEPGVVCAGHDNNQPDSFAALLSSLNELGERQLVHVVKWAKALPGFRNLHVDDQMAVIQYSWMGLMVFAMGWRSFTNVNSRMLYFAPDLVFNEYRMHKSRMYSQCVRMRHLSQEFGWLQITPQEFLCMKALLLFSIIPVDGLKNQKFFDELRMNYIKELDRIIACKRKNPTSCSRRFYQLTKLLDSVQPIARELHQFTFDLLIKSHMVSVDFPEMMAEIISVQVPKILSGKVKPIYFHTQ
Protocol: The antiandrogenic effect was carried out as described in Schneider et al. (Schneider K., Graf E., Irran E., Nicholson G., Stainsby F. M., Goodfellow M., Borden S. A., Keller S., Süssmuth R. D. and Fiedler H. P. (2008) Bendigoles A˜C, New Steroids from Gordonia australis Acta 2299, J. Antibiotics (Tokyo) 61 (6), 356-364).
The culture medium used for culturing cells used for the assay was RPMI (PAA, #E15-49) with 10% FCS, […] L-glutamine, 100 U/100 ug/ml penicillin/streptomycin. Reporter cell lines (PC3 cells stably transfected with human androgen receptor (hAR) and a reporter construct which comprises luciferase under the control of an androgen-responsive promoter (MMTV)) were grown at a density of 4×10^4 cells per well in white, opaque tissue culture plates with 96 wells in each (Perkin Elmer, #P12-106-017) and maintained in culture medium with 3% DCC-FCS (serum treated with activated carbon to remove interfering components present in the serum). The compounds to be investigated were added eight hours later, and the cells were incubated with the compounds for 16 hours. The experiments were carried out in triplicate. At the end of the incubation, the effector-containing medium was removed and replaced by lysis buffer.
After luciferase assay substrate (Promega, #E1501) had been added, the plates with the 96 wells were then inserted into a microplate luminometer (Pherastar, BMG labtech), and the luminescence was measured. The IC50 values were evaluated using software for calculating dose-activity relationships. The efficacy indicates the per cent of the maximum effect by comparison with the maximum effect of a reference antiandrogen (hydroxyflutamide).

Row | Structure (SMILES) | x-fold induction factor of IDI1 mRNA after TP administration (IDI1 mRNA; prostate tissue 24 hours after first treatment, 1 mg/kg TP, 10 mg/kg test substance) | Antiandrogenic effect (% inhibition) (orchidectomized rats) [%] | antiandrogenic effect (in words) (orchidectomized rats) | ED50, progestational effect in the pregnancy maintenance test (ovariectomized rats [1]) [mg/kg/day] | AUC (blood, calculated) in rats necessary for 80% pregnancy maintenance (ovariectomized rats [2]) | antiandrogenic effect (in words) (IDI1 mRNA) | Antiandrogenic effect (% inhibition) (IDI1 mRNA; 10 mg/kg test substance) [%] | ED50 (adrenalectomized rats; Rattus norvegicus, sc) [mg/kg] | IC50 [3] [nM] | Efficacy [3] [per cent] | ED50, antimineralocorticoid effect in the diuresis experiment (adrenalectomized rats) [mg/kg/day] | fold induction at 10 mg/kg (IDI1 mRNA)
1 | CCC(=O)O[C@H]1CC[C@H]2[C@@H]3CCC4=CC(=O)CC[C@]4(C)[C@H]3CC[C@]12C [TP, testosterone propionate] | 7.07 |  |  |  |  |  |  |  |  |  |  | 
2 | C[C@]12CCC(=O)C=C1[C@@H]1C[C@@H]1C1C2CC[C@@]2(C)C1[C@@H]1C[C@@H]1[C@@]21CCC(=O)O1 (stereo partly drawn) [Drospirenone, 6β,7β-15β,16β-dimethylene-3-oxo-17-pregn-4-ene-21,17β-carbolactone] |  | 22.5 | smaller but distinct antiandrogenic effect | 10 | 1346 (μg*h/L) | smaller but distinct antiandrogenic effect | 27 | 6.7 |  |  |  | 
3 | C[C@]12CCC(=O)C=C1[C@@H]1C[C@@H]1C1C2[C@@H](F)C[C@@]2(C)C1[C@@H]1C[C@@H]1[C@@]21CCC(=O)O1 (single isomer, unassigned) [Compound of Ex. 2, 6β,7β;15β,16β-Dimethylene-11β-fluoro-3-oxo-17-pregn-4-ene-21,17β-carbolactone] |  | 3.8 |  | 3.4 |  |  |  |  | 160 | 31.9 | 12.36 | 
4 | C[C@]12CCC(=O)C=C1[C@@H]1C[C@@H]1C1C2=CC[C@@]2(C)C1[C@@H]1C[C@@H]1[C@@]21CCC(=O)O1 (stereo partly drawn) [Compound of Ex. 1, 6β,7β;15β,16β-Dimethylene-3-oxo-17-pregna-4,9(11)-diene-21,17β-carbolactone] |  | <0 |  | 2.9 | 210 (μg*h/L) | no antiandrogenic effect | <0 |  | 240 | 19.3 | 5.9 | 7.89
5 | CC(=O)O[C@]1(C(C)=O)CC[C@H]2[C@@H]3C=C(Cl)C4=CC(=O)[C@@H]5C[C@@H]5[C@]4(C)[C@H]3CC[C@@]21C [Cyproterone acetate, cyproterone acetate] |  | 73.1 | strong antiandrogenic effect |  |  | strong antiandrogenic effect | 91 |  |  |  |  | 1.53
